Values quoted from earlier work as cited in patent US20250025568A1, “COMBINATION OF ANTIBODY-DRUG CONJUGATE AND PARP1 SELECTIVE INHIBITOR” (AstraZeneca UK Limited, priority 2021, published 2025).

Columns and labels:
BRCA2 −/− DLD-1 = conditions: 4 day compound dosing; read-out: BRCA2 −/− DLD-1 prolif 4 d IC50; cited from earlier work
WT DLD-1 = conditions: 4 day compound dosing; read-out: WT DLD-1 prolif 4 d IC50; cited from earlier work

Structure (SMILES)	IC50 (BRCA2 −/− DLD-1)	IC50 (WT DLD-1)
CCc1cc2cnc(CN3CCN(c4ccc(C(=O)NC)nc4)CC3)cc2[nH]c1=O [Example 1, 5-[4-[(3-ethyl-2-oxo-1H-1,6-naphthyridin-7-yl)methyl]piperazin-1-yl]-N-methyl-pyridine-2-carboxamide]	10 nM	> 30000 nM
CCc1cc2cnc(CN3CCN(c4ccc(C(=O)NC)nc4F)CC3)cc2[nH]c1=O [Example 2, 5-[4-[(3-ethyl-2-oxo-1H-1,6-naphthyridin-7-yl)methyl]piperazin-1-yl]-6-fluoro-N-methyl-pyridine-2-carboxamide]	8 nM	> 30000 nM
CCc1cc2cnc(CN3CCN(c4ccc(C(=O)NC)nc4Cl)CC3)cc2[nH]c1=O [Example 3, 6-chloro-5-[4-[(3-ethyl-2-oxo-1H-1,6-naphthyridin-7-yl)methyl]piperazin-1-yl]-N-methyl-pyridine-2-carboxamide]	4 nM	> 30000 nM
CCc1cc2ncc(CN3CCN(c4ccc(C(=O)NC)nc4F)CC3)cc2[nH]c1=O [Example 5, 5-[4-[(7-ethyl-6-oxo-5H-1,5-naphthyridin-3-yl)methyl]piperazin-1-yl]-6-fluoro-N-methyl-pyridine-2-carboxamide]	6 nM	> 30000 nM
CCc1cc2ncc(CN3CCN(c4ccc(C(=O)NC)nc4Cl)CC3)cc2[nH]c1=O [Example 6, 6-chloro-5-[4-[(7-ethyl-6-oxo-5H-1,5-naphthyridin-3-yl)methyl]piperazin-1-yl]-N-methyl-pyridine-2-carboxamide]	6 nM	> 30000 nM
CCc1cc2ncc(CN3CCN(c4ccc(C(N)=O)nc4)CC3)cc2[nH]c1=O [Example 7, 5-[4-[(7-ethyl-6-oxo-5H-1,5-naphthyridin-3-yl)methyl]piperazin-1-yl]pyridine-2-carboxamide]	4140 nM	–
CCc1nc(C(=O)NC)ccc1N1CCN(Cc2ccc3nc(CC)c(=O)[nH]c3c2)CC1 [Example 8, 6-ethyl-5-[4-[(2-ethyl-3-oxo-4H-quinoxalin-6-yl)methyl]piperazin-1-yl]-N-methyl-pyridine-2-carboxamide]	–	> 19000 nM
CCc1nc2ccc(CN3CCN(c4ccc(C(=O)NC)nc4C(F)(F)F)CC3)cc2[nH]c1=O [Example 9, 5-[4-[(2-ethyl-3-oxo-4H-quinoxalin-6-yl)methyl]piperazin-1-yl]-N-methyl-6-(trifluoromethyl)pyridine-2-carboxamide]	10 nM	17000 nM
CCc1nc2ccc(CN3CCN(c4ccc(C(=O)NC)nc4C(F)F)CC3)cc2[nH]c1=O [Example 10, 6-(difluoromethyl)-5-[4-[(2-ethyl-3-oxo-4H-quinoxalin-6-yl)methyl]piperazin-1-yl]-N-methyl-pyridine-2-carboxamide]	6 nM	> 30000 nM
CCc1nc2ccc(CN3CCN(c4ccc(C(=O)NC)nc4)CC3)cc2[nH]c1=O [Example 11, 5-[4-[(2-ethyl-3-oxo-4H-quinoxalin-6-yl)methyl]piperazin-1-yl]-N-methyl-pyridine-2-carboxamide]	184 nM	> 30000 nM
CCc1nc2ccc(CN3CCN(c4ccc(C(=O)NC)nc4F)CC3)cc2[nH]c1=O [Example 12, 5-[4-[(2-ethyl-3-oxo-4H-quinoxalin-6-yl)methyl]piperazin-1-yl]-6-fluoro-N-methyl-pyridine-2-carboxamide]	8 nM	> 30000 nM
CCc1nc2ccc(CN3CCN(c4ccc(C(=O)NC)nc4C)CC3)cc2[nH]c1=O [Example 13, 5-[4-[(2-ethyl-3-oxo-4H-quinoxalin-6-yl)methyl]piperazin-1-yl]-N, 6-dimethyl-pyridine-2-carboxamide]	5 nM	> 26000 nM
CCc1nc2ccc(CN3CCN(c4ccc(C(=O)NC)nc4Cl)CC3)cc2[nH]c1=O [Example 14, 6-chloro-5-[4-[(2-ethyl-3-oxo-4H-quinoxalin-6-yl)methyl]piperazin-1-yl]-N-methyl-pyridine-2-carboxamide]	6 nM	> 30000 nM
CNC(=O)c1ccc(N2CCN(Cc3ccc4nc(C(F)(F)F)c(=O)[nH]c4c3)CC2)cn1 [Example 15, N-methyl-5-[4-[[3-oxo-2-(trifluoromethyl)-4H-quinoxalin-6-yl]methyl]piperazin-1-yl]pyridine-2-carboxamide]	90 nM	> 30000 nM
CNC(=O)c1ccc(N2CCN(Cc3ccc4nc(C(F)(F)F)c(=O)[nH]c4c3)CC2)c(Cl)n1 [Example 16, 6-chloro-N-methyl-5-[4-[[3-oxo-2-(trifluoromethyl)-4H-quinoxalin-6-yl]methyl]piperazin-1-yl]pyridine-2-carboxamide]	18 nM	> 22000 nM
CNC(=O)c1ccc(N2CCN(Cc3ccc4nc(C(F)(F)F)c(=O)[nH]c4c3)CC2)c(F)n1 [Example 17, 6-fluoro-N-methyl-5-[4-[[3-oxo-2-(trifluoromethyl)-4H-quinoxalin-6-yl]methyl]piperazin-1-yl]pyridine-2-carboxamide]	20 nM	> 30000 nM
CCCc1nc2ccc(CN3CCN(c4ccc(C(=O)NC)nc4)CC3)cc2[nH]c1=O [Example 18, N-methyl-5-[4-[(3-oxo-2-propyl-4H-quinoxalin-6-yl)methyl]piperazin-1-yl]pyridine-2-carboxamide]	4900 nM	> 30000 nM
CCCc1nc2ccc(CN3CCN(c4ccc(C(=O)NC)nc4Cl)CC3)cc2[nH]c1=O [Example 19, 6-chloro-N-methyl-5-[4-[(3-oxo-2-propyl-4H-quinoxalin-6-yl)methyl]piperazin-1-yl]pyridine-2-carboxamide]	–	> 30000 nM
CCCc1nc2ccc(CN3CCN(c4ccc(C(=O)NC)nc4F)CC3)cc2[nH]c1=O [Example 20, 6-fluoro-N-methyl-5-[4-[(3-oxo-2-propyl-4H-quinoxalin-6-yl)methyl]piperazin-1-yl]pyridine-2-carboxamide]	16 nM	> 24000 nM
CCc1nc2cc(F)c(CN3CCN(c4ccc(C(=O)NC)nc4F)CC3)cc2[nH]c1=O [Example 21, 5-[4-[(2-ethyl-7-fluoro-3-oxo-4H-quinoxalin-6-yl)methyl]piperazin-1-yl]-6-fluoro-N-methyl-pyridine-2-carboxamide]	16 nM	> 30000 nM
CNC(=O)c1ccc(N2CCN(Cc3ccc4nc(C(C)(F)F)c(=O)[nH]c4c3)CC2)cn1 [Example 22, 5-[4-[[2-(1,1-difluoroethyl)-3-oxo-4H-quinoxalin-6-yl]methyl]piperazin-1-yl]-N-methyl-pyridine-2-carboxamide]	12 nM	> 30000 nM
CNC(=O)c1ccc(N2CCN(Cc3ccc4nc(CC(F)F)c(=O)[nH]c4c3)CC2)c(F)n1 [Example 24, 5-[4-[[2-(2,2-difluoroethyl)-3-oxo-4H-quinoxalin-6-yl]methyl]piperazin-1-yl]-6-fluoro-N-methyl-pyridine-2-carboxamide]	10 nM	14000 nM
CNC(=O)c1ccc(N2CCN(Cc3ccc4nc(CCF)c(=O)[nH]c4c3)CC2)cn1 [Example 25, 5-[4-[[2-(2-fluoroethyl)-3-oxo-4H-quinoxalin-6-yl]methyl]piperazin-1-yl]-N-methyl-pyridine-2-carboxamide]	–	> 25000 nM
CNC(=O)c1ccc(N2CCN(Cc3ccc4nc(CCF)c(=O)[nH]c4c3)CC2)c(F)n1 [Example 26, 6-fluoro-5-[4-[[2-(2-fluoroethyl)-3-oxo-4H-quinoxalin-6-yl]methyl]piperazin-1-yl]-N-methyl-pyridine-2-carboxamide]	5 nM	23000 nM
CNC(=O)c1ccc(N2CCN(Cc3ccc4nc(CC(F)(F)F)c(=O)[nH]c4c3)CC2)cn1 [Example 27, N-methyl-5-[4-[[3-oxo-2-(2,2,2-trifluoroethyl)-4H-quinoxalin-6-yl]methyl]piperazin-1-yl]pyridine-2-carboxamide]	10300 nM	> 10000 nM
CNC(=O)c1ccc(N2CCN(Cc3ccc4nc(CC(F)(F)F)c(=O)[nH]c4c3)CC2)c(F)n1 [Example 28, 6-fluoro-N-methyl-5-(4-((3-oxo-2-(2,2,2-trifluoroethyl)-3,4-dihydroquinoxalin-6-yl)methyl)piperazin-1-yl) picolinamide]	27 nM	> 30000 nM
CCc1cc2ncc(CN3CCN(c4ccc(C(=O)NC)nc4C(F)F)CC3)cc2[nH]c1=O [Example 29, 6-(difluoromethyl)-5-[4-[(7-ethyl-6-oxo-5H-1,5-naphthyridin-3-yl)methyl]piperazin-1-yl]-N-methyl-pyridine-2-carboxamide]	7 nM	> 30000 nM
